Test results published in patent US20140357512A1, “HISTONE DEACETYLASE (HDAC) BIOMARKERS IN MULTIPLE MYELOMA” (priority 2013, published 2014).

Tested on: human myeloma cell line MM.1S
Assay: SILAC acetylated-lysine peptide profiling, HDAC inhibitor vs DMSO (light/heavy ratio)
Type: cell-based
Text: An embodiment of the invention comprises utilizing the SILAC method in order to quantitate changes in protein expression between two or more populations of cells. The SILAC method is a technique based on mass spectrometry that detects differences in protein abundance among samples using non-radioactive isotopic labeling. The SILAC method is known in the art, and described in detail in Ong et al., “Stable Isotope Labeling by Amino Acids in Cell Culture, SILAC, as a Simple and Accurate Approach to Expression Proteomics”, Molecular & Cellular Proteomics, vol. 1, pp. 376-386 (2002), which is incorporated herein by reference in its entirety.
Briefly, the SILAC method involves growing two populations of cells in cell culture. The first population of cells is grown in growth media containing normal amino acids (“normal media”). The second population of cells is grown in media lacking a standard essential amino acid (such as lysine), but is then supplemented with a non-radioactive, isotopically labeled form of that essential amino acid (such as lysine labeled with ^13C atoms, rather than normal ^12C atoms), which is called “heavy media”. When the two populations of cells are each growing in the medium, they incorporate the amino acids into all of their proteins. The growth of cells maintained in the heavy media is no different from that in normal media. All peptides containing the heavy amino acids are heavier than their normal counterparts. The cells from each of the two populations of cells are lysed. The lysates from each of the two cell populations are then combined. The combined cell lysates are then analyzed by mass spectrometry. Pairs of chemically identical peptides of different stable isotope composition can be differentiated in a mass spectrometer due to their difference in mass. The ratio of peak intensities in the mass spectrum for such peptide pairs reflects the abundance ratio for the two proteins.
This example describes SILAC studies that were performed to compare the effects of three different HDAC inhibitors (Compound A, Compound B, and tubastatin A) to a control on a human multiple myeloma cell line. The HDAC inhibitors were also compared amongst themselves to determine differences in their effects.
A human myeloma cell line MM.1S was grown using either ^12C (light) or ^13C (heavy) lysine containing culture medium. The “heavy” cells were treated with DMSO as the control, and the “light” cells were treated with a single HDAC inhibitor at 37° C. for 6 hours. The heavy and light cells were lysed, and the lysates were mixed in 1:1 ratio and digested with the protease trypsin. The acetylated lysine containing peptides (due to the action of the HDAC inhibitor) in the digested peptide pool were captured by a non-specific anti-acetylated lysine antibody cocktail (the antibodies identify both light and heavy acetylated peptides), and subjected to mass spectrometry analysis in order to identify thousands of individual peptides.
Thousands of peptides were identified in pairs (^12C and ^13C) due to their known mass differences. The amino acid sequence and quantitative ratio (Light/Heavy) of a given peptide in two differentially treated cell lysates were then determined and annotated with their possible protein (gene) sources.
As stated above, three HDAC inhibitors (Compound A, Compound B, and Tubastatin A) were used. Thus, the SILAC method was performed three times, with a different HDAC inhibitor compared to a control each time. Accordingly, there are three pairs of quantitative data in the table below, i.e., Compound A:DMSO, Compound B:DMSO, and Tubastatin A:DMSO. A cut-off of 1.30 fold of change (increase or decrease) was then used to determine “changed” or “+” in the table, and any peptides with a fold of change less than 1.3 fold were determined to be “unchanged” or “0” in the table. Those peptides that were not identified were marked as “NA” in the table. […]

Q: With `O=C(CCCCCCNC(=O)c1cnc(N(c2ccccc2)c2ccccc2)nc1)NO` [Compound A, 2-(diphenylamino)-N-(7-(hydroxyamino)-7-oxoheptyl)pyrimidine-5-carboxamide] as the molecule, how does the “light to heavy ratio (L/H ratio) of acetylated peptide GAGTDEK(ac)TLTR (SEQ ID NO: 621)” value (Annexin A6 [620], gene ANXA6, inhibitor:DMSO) read?
A: The value was 0.48 log 2.

Q: What about the “light to heavy ratio (L/H ratio), log 2 scale, acetylated peptide EFIEK(ac)YDK (SEQ ID NO: 779)” value (Annexin A6 [644], gene ANXA6, drug:DMSO) of the same molecule?
A: The value was 1.00.

Q: What about the “light to heavy ratio (L/H ratio) of acetylated peptide DDNGK(ac)PYVLPSVR (SEQ ID NO: 579)” value (Aspartate aminotransferase mitochondrial [73], gene GOT2, inhibitor:DMSO) of the same molecule?
A: Its value is 0.43 log 2.

Q: And the “light to heavy ratio (L/H ratio) of acetylated peptide LMEK(ac)EINGSK (SEQ ID NO: 517)” value (Atlastin-3 [309], gene ATL3, inhibitor:DMSO)?
A: Its value is −0.56 log 2.

Q: What about the “light to heavy ratio (L/H ratio) of acetylated peptide ELK(ac)EIQYGIR (SEQ ID NO: 540)” value (Branched-chain-amino-acid aminotransferase [337], gene BCAT2, inhibitor:DMSO) of the same molecule?
A: Its value is 0.39 log 2.

Q: What about the “light to heavy ratio (L/H ratio), log 2 scale, acetylated peptide ESCSK(ac)[…] (SEQ ID NO: 780)” value (Bromodomain and PHD finger-containing protein 3 [105], gene BRPF3, drug:DMSO) of the same molecule?
A: The value was 1.00.

Q: What about the “L/H ratio of acetylated peptide FYGDEEK(ac)[…] (SEQ ID NO: 25)” value (CALR [62], log 2 scale, drug vs DMSO) of the same molecule?
A: The value was 0.00.

Q: And the “light to heavy ratio (L/H ratio) of acetylated peptide LQVLDPVPK(ac)PVIK (SEQ ID NO: 539)” value (CD48 antigen [133], gene CD48, inhibitor:DMSO)?
A: Its value is 0.39 log 2.

Q: And the “light to heavy ratio (L/H ratio) of acetylated peptide AGLQVYNK(ac)CWK (SEQ ID NO: 260)” value (CD59 glycoprotein [63], CD59, drug:DMSO)?
A: Its value is 0.41 log 2.

Q: And the “L/H ratio of acetylated peptide […](ac)R (SEQ ID NO: 26)” value (CLTC [637], log 2 scale, drug vs DMSO)?
A: The value was 0.00.

Q: What about the “L/H ratio of acetylated peptide FK(ac)ESFAEMNR (SEQ ID NO: 1)” value (COX4I1 [87], log 2 scale, drug vs DMSO) of the same molecule?
A: Its value is 0.00.

Q: And the “L/H ratio of acetylated peptide […](ac)QLCTIPR (SEQ ID NO: 27)” value (CREBBP [1216], log 2 scale, drug vs DMSO)?
A: Its value is 0.00.

Q: What about the “L/H ratio of acetylated peptide TNK(ac)NK(ac)SSISR (SEQ ID NO: 13)” value (CREBBP [1595:1597], log 2 scale, drug vs DMSO) of the same molecule?
A: The value was 1.00.

Q: And the “L/H ratio of acetylated peptide ALK(ac)DLYCHK (SEQ ID NO: 28)” value (CREM [240], log 2 scale, drug vs DMSO)?
A: The value was 0.00.

Q: What about the “L/H ratio of acetylated peptide LYCPK(ac)CMDVYTPK (SEQ ID NO: 29)” value (CSNK2B [139], log 2 scale, drug vs DMSO) of the same molecule?
A: The value was 0.00.

Q: What about the “light to heavy ratio (L/H ratio) of acetylated peptide NSFDCFK(ac)K (SEQ ID NO: 605)” value (Calcium-binding mitochondrial carrier protein Aralar2 [379], gene SLC25A13, inhibitor:DMSO) of the same molecule?
A: Its value is 0.46 log 2.

Q: And the “light to heavy ratio (L/H ratio) of acetylated peptide FVLSSGK(ac)FYGDEEKDK (SEQ ID NO: 281)” value (Calreticulin [55], CALR, drug:DMSO)?
A: Its value is 0.58 log 2.

Q: And the “light to heavy ratio (L/H ratio) of acetylated peptide VHVIFNYK(ac)GK (SEQ ID NO: 273)” value (Calreticulin [151], CALR, drug:DMSO)?
A: Its value is 0.48 log 2.

Q: And the “light to heavy ratio (L/H ratio) of acetylated peptide NVLINK(ac)DIR (SEQ ID NO: 257)” value (Calreticulin [159], CALR, drug:DMSO)?
A: The value was 0.39 log 2.

Q: What about the “light to heavy ratio (L/H ratio) of acetylated peptide TCDLVGEK(ac)GK (SEQ ID NO: 289)” value (Cation-dependent mannose-6-phosphate receptor [38], M6PR, drug:DMSO) of the same molecule?
A: Its value is 0.65 log 2.

Q: What about the “light to heavy ratio (L/H ratio) of acetylated peptide […](ac)GLLK (SEQ ID NO: 569)” value (Chloride intracellular channel protein 1 [131], gene CLIC1, inhibitor:DMSO) of the same molecule?
A: Its value is 0.41 log 2.

Q: What about the “light to heavy ratio (L/H ratio), log 2 scale, acetylated peptide GFSIPECQK(ac)LLPK (SEQ ID NO: 783)” value (Citrate synthase mitochondrial [103], gene CS, drug:DMSO) of the same molecule?
A: The value was 1.00.

Q: What about the “light to heavy ratio (L/H ratio) of acetylated peptide […](ac)LR (SEQ ID NO: 566)” value (Citrate synthase mitochondrial [327], gene CS, inhibitor:DMSO) of the same molecule?
A: Its value is 0.41 log 2.

Q: What about the “light to heavy ratio (L/H ratio) of acetylated peptide EFALK(ac)HLPNDPMFK (SEQ ID NO: 583)” value (Citrate synthase mitochondrial [366], gene CS, inhibitor:DMSO) of the same molecule?
A: The value was 0.43 log 2.

Q: What about the “light to heavy ratio (L/H ratio) of acetylated peptide SMSTEGLMK(ac)FVDSK (SEQ ID NO: 330)” value (Citrate synthase mitochondrial [459], CS, drug:DMSO) of the same molecule?
A: Its value is 0.00 log 2.

Q: And the “light to heavy ratio (L/H ratio) of acetylated peptide VASK(ac)QLEEEDGSR (SEQ ID NO: 591)” value (Coatomer subunit gamma [238], gene COPG, inhibitor:DMSO)?
A: The value was 0.44 log 2.

Q: And the “light to heavy ratio (L/H ratio), log 2 scale, acetylated peptide MIYASSK(ac)DAIKK (SEQ ID NO: 763)” value (Cofilin-1 [121], gene CFL1, drug:DMSO)?
A: Its value is 0.93.

Q: And the “light to heavy ratio (L/H ratio) of acetylated peptide AAEEVEAK(ac)FK (SEQ ID NO: 328)” value (Coiled-coil-helix-coiled-coil-helix domain-containing protein 3 mitochondrial [173], CHCHD3, drug:DMSO)?
A: Its value is 0.00 log 2.

Q: What about the “light to heavy ratio (L/H ratio) of acetylated peptide ASEIGEK(ac)YR (SEQ ID NO: 586)” value (Conserved hypothetical protein [484], gene KIAA0947, inhibitor:DMSO) of the same molecule?
A: The value was 0.44 log 2.

Q: What about the “light to heavy ratio (L/H ratio) of acetylated peptide DHCVAHK(ac)LFNNLK (SEQ ID NO: 608)” value (Cytochrome b-c1 complex subunit 6 mitochondrial [85], gene UQCRH, inhibitor:DMSO) of the same molecule?
A: The value was 0.46 log 2.

Q: And the “light to heavy ratio (L/H ratio) of acetylated peptide LFDYFPK(ac)PYPNSEAAR (SEQ ID NO: 548)” value (Cytochrome c1 heme protein mitochondrial [177], gene CYC1, inhibitor:DMSO)?
A: The value was 0.39 log 2.

Q: What about the “light to heavy ratio (L/H ratio) of acetylated peptide YFDEK(ac)IAK (SEQ ID NO: 563)” value (D-beta-hydroxybutyrate dehydrogenase mitochondrial [280], gene BDH1, inhibitor:DMSO) of the same molecule?
A: Its value is 0.41 log 2.

Q: And the “L/H ratio of acetylated peptide FK(ac)[…] (SEQ ID NO: 30)” value (DAZAP1 [59], log 2 scale, drug vs DMSO)?
A: Its value is 0.00.

Q: And the “L/H ratio of acetylated peptide APTIVGK(ac)SSLNPILFR (SEQ ID NO: 31)” value (DDOST [189], log 2 scale, drug vs DMSO)?
A: Its value is 0.00.

Q: What about the “L/H ratio of acetylated peptide FGNPGEK(ac)LVK (SEQ ID NO: 34)” value (DDX5 [40], log 2 scale, drug vs DMSO) of the same molecule?
A: Its value is 0.00.
